# pIC50: −log10 of the molar value. Structures can show the parent of a compound that is named as a salt. Where two headings read alike, the source gives them in different places.
# Legend:
# Assay type in all cases: biochemical
# [1] = biological target: T1, Recombinant Human Anaplastic Lymphoma Kinase (Homo sapiens, UniProt Q9UM73); assay: ALK HTRF kinase assay
# T1 construct: purchased Invitrogen, Carlsbad, Calif
# Outline: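 Recombinant human ALK phosphorylated a biotinylated synthetic peptide. Phosphotyrosine was detected by TR-FRET between a Eu-labelled anti-phosphotyrosine antibody and streptavidin-allophycocyanin. IC50 values came from fitting signal against inhibitor concentration to a four-parameter logistic equation with variable Hill slope.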
# [2] = biological target: T2, human JAK2 (a.a. 828-1132) (Homo sapiens, UniProt O60674); assay: In vitro JAK kinase assay (HTRF, phosphorylation of a biotinylated peptide), JAK2
# T2 construct: JAK2 (a.a. 828-1132); His tag (N); made in house; host or cells: insect cells (baculovirus)
# Outline: (§1)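 Kinase reactions ran at room temperature for 1 h with ATP matched per isoform (JAK1 90 μM, JAK2 30 μM, JAK3 3 μM). After an EDTA stop, the phosphorylated biotin-peptide was read by HTRF using Eu-Py20 and SA-APC after 40 min binding.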
# [3] = biological target: T3, human JAK3 (a.a. 781-1124) (Homo sapiens, UniProt P52333); assay: In vitro JAK kinase assay (HTRF, phosphorylation of a biotinylated peptide), JAK3
# T3 construct: JAK3 (a.a. 781-1124); His tag (N); made in house; host or cells: insect cells (baculovirus)
# Outline: as §1
# [4] = biological target: T4, human JAK1 (a.a. 837-1142) (Homo sapiens, UniProt P23458); assay: In vitro JAK kinase assay (HTRF, phosphorylation of a biotinylated peptide), JAK1; conditions: read-out: JAK1 IC50
# T4 construct: human JAK1 (a.a. 837-1142); His tag (N); made in house; host or cells: insect cells (baculovirus)
# Outline: as §1
# TYK2 = TYK2 (Homo sapiens, UniProt P29597); assay: TYK2 kinase inhibition (Table A1)
# [5] = compound at 500 nM or 1 mM, 90 μM ATP
# [6] = method AA1 (30 μM ATP) or AA2 (1000 μM ATP), not stated per value
# [7] = method AA1 (3 μM ATP) or AA2 (1000 μM ATP), not stated per value
# [8] = method AA1 (90 μM ATP) or AA2 (1000 μM ATP), not stated per value
# [9] = Table B1, cells without percent sign
# [10] = compound at a concentration of 500 nM or 1 mM (not specified), cells shown as percentage
# T1 sequence (Q9UM73 19-1620): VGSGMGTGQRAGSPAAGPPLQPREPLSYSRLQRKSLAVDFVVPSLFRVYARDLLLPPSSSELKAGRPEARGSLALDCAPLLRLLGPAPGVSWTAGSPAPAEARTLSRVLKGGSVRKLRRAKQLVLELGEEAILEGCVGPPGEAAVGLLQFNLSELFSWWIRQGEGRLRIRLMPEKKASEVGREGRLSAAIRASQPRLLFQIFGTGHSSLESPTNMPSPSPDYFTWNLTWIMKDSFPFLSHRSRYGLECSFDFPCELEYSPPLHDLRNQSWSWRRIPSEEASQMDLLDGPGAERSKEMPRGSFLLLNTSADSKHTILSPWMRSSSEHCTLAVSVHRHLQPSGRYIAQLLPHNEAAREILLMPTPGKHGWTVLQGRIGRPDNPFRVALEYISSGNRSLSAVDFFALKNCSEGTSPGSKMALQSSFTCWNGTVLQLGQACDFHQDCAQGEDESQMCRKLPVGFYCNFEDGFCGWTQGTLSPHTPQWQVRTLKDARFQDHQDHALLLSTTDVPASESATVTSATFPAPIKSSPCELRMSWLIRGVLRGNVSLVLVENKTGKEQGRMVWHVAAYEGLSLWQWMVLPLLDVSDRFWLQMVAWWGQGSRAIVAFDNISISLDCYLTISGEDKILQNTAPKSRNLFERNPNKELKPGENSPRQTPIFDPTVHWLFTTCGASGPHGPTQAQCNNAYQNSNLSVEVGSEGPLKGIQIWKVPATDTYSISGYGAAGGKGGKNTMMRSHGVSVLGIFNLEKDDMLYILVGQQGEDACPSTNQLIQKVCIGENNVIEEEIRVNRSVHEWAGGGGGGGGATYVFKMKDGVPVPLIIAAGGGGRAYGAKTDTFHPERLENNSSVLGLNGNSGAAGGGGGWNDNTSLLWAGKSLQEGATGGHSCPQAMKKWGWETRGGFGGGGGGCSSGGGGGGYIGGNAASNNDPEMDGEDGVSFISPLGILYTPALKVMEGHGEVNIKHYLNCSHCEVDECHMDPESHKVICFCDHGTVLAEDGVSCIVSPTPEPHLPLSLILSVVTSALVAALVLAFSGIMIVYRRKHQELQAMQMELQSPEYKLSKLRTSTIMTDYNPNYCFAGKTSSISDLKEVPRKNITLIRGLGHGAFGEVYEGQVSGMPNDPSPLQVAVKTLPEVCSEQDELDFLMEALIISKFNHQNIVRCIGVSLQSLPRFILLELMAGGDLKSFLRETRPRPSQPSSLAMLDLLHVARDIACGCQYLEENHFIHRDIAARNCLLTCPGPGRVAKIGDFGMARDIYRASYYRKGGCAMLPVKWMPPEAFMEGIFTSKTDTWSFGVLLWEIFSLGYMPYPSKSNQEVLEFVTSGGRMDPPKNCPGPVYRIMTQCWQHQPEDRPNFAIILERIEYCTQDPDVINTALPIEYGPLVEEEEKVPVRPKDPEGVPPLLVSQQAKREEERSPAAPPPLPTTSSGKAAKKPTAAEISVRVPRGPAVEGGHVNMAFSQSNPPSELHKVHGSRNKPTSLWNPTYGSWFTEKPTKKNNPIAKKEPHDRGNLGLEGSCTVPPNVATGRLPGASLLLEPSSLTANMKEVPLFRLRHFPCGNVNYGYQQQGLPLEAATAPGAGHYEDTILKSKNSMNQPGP
# T2 sequence (O60674 828-1132): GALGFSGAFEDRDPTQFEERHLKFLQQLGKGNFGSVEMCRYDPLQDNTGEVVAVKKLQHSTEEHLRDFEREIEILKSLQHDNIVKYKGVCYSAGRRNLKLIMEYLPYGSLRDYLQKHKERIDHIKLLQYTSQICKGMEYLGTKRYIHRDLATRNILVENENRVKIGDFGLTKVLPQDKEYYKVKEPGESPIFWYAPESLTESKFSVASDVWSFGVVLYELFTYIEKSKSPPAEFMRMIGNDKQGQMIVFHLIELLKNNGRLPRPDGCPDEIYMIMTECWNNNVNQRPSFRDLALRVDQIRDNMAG
# T3 sequence (P52333 781-1124): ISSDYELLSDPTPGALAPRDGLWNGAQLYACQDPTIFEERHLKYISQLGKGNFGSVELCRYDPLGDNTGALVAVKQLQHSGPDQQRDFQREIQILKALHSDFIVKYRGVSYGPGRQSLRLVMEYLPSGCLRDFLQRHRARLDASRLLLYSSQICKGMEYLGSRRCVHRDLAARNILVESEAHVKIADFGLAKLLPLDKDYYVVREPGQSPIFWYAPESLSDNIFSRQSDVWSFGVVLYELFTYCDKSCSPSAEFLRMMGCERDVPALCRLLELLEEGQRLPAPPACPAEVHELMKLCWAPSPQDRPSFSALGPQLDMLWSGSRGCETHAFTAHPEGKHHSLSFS
# T4 sequence (P23458 849-1154): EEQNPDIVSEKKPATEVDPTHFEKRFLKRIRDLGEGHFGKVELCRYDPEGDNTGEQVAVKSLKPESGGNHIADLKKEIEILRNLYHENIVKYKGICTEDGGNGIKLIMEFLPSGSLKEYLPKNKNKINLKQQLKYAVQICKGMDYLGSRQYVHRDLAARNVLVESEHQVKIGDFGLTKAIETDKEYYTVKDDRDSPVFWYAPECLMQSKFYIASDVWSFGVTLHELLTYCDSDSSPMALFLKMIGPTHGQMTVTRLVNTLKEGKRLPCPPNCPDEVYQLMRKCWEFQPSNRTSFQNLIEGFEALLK
# Chain of TYK2 (P29597 whole entry): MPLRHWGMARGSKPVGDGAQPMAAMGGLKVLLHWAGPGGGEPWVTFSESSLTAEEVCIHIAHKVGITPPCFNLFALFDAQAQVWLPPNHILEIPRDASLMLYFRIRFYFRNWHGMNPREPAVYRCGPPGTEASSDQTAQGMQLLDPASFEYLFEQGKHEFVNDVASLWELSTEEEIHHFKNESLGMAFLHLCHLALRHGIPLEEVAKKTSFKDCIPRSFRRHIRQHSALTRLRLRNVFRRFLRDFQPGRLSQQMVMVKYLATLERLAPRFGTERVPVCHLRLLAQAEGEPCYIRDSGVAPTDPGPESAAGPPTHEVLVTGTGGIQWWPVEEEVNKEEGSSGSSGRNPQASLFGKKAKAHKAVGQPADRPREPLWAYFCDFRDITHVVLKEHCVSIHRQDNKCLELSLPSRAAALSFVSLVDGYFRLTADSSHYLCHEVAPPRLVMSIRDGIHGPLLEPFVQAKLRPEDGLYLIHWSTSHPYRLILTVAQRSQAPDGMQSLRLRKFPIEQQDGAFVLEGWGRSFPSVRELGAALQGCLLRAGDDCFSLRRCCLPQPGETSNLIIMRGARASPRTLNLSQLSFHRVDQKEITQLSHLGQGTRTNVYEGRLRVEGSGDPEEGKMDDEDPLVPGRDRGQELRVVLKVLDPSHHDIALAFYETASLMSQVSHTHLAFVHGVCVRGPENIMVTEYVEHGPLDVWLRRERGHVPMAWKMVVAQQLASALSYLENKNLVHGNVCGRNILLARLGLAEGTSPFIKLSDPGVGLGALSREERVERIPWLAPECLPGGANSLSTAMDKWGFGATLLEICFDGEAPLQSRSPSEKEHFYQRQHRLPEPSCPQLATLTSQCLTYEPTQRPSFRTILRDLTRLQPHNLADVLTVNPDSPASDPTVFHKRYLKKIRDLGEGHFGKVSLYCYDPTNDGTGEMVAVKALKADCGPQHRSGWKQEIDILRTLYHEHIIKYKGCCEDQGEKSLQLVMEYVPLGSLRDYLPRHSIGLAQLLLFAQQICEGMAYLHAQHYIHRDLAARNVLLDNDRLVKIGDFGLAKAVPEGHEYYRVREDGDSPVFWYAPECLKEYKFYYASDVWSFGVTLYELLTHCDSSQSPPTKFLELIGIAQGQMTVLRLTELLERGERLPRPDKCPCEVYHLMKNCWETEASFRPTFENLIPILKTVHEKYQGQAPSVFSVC
"pIC50 [1, 9]",pIC50 ([2]; Table B1),pIC50 ([3]; Table B1),pIC50 ([4]; Table B1),pIC50 (TYK2; Table B1),Compound,other results
–,–,–,–,–,"CCS(=O)(=O)N1CCC(CC(=O)Nc2ccc3cc2CCc2cncc(c2)Nc2ncc(Cl)c(n2)N3)CC1 [Example A98, N-[6-Chloro-2,4,8,18,22-pentaazatetracyclo[14.3.1.1(3,7).1(9,13)]docosa-1(20),3(22),4,6,9(21),10,12,16,18-nonaen-12-yl]-2-[1-(ethylsulfonyl)piperidin-4-yl]acetamide bis(trifluoroacetate)]","ALK % of inhibition at a concentration of 500 nM or 1 mM [1, 5]: 34%; pIC50 [2, 6]: 8.57; pIC50 [3, 7]: 7.26; pIC50 [4, 8]: 9.00; pIC50 (TYK2): 8.28"
–,–,–,–,–,"CC(=O)N1Cc2cccc(c2)Nc2nc(ncc2Cl)Nc2cccc1c2 [Example D71, 15-Acetyl-6-chloro-2,4,8,15,22-pentaazatetracyclo[14.3.1.1(3,7).1(9,13)]docosa-1(20),3(22),4,6,9(21),10,12,16,18-nonaene trifluoroacetate]","pIC50 ([1]; Table D1, 90 μM ATP): < 6.00; pIC50 ([2]; Table D1): 6.73; pIC50 ([3]; Table D1): 7.19; pIC50 ([4]; Table D1): 6.82; pIC50 (TYK2; Table D1): 6.52"
–,–,–,–,–,"Clc1cnc2nc1Nc1cccc(c1)CCNc1cccc(c1)N2 [Example D78, 6-Chloro-2,4,8,16,23-pentaazatetracyclo[15.3.1.1(3,7).1(9,13)]tricosa-1(21), 3(23),4,6,9(22),10,12,17,19-nonaene bis(trifluoroacetate)]","pIC50 ([1]; Table D1, 90 μM ATP): 6.10; pIC50 ([2]; Table D1): 8.00; pIC50 ([3]; Table D1): 7.52; pIC50 ([4]; Table D1): 7.52; pIC50 (TYK2; Table D1): 7.72"
6.33,9.00,7.89,9.07,8.25,"O=C(Nc1ccc2cc1CCc1cccc(c1)Nc1ncc(Cl)c(n1)N2)c1cccs1 [Example B34, N-[6-Chloro-2,4,8,22-tetraazatetracyclo[14.3.1.1(3,7).1(9,13)]docosa-1(20),3(22),4,6,9(21),10,12,16,18-nonaen-12-yl]thiophene-2-carboxamide trifluoroacetate]",–
7.10,9.27,8.44,9.23,8.85,"O=C(Nc1ccc2cc1CCc1cccc(c1)Nc1ncc(Cl)c(n1)N2)c1ccc(F)cc1 [Example B49, N-[6-Chloro-2,4,8,22-tetraazatetracyclo[14.3.1.1(3,7).1(9,13)]docosa-1(20), 3(22),4,6,9(21),10,12,16,18-nonaen-12-yl]-4-fluorobenzamide trifluoroacetate]",–
6.03,8.57,8.96,7.92,7.64,"CC(C)C(=O)Nc1ccc2cc1CCc1cccc(c1)Nc1ncc(Cl)c(n1)N2 [Example B55, N-[6-Chloro-2,4,8,22-tetraazatetracyclo[14.3.1.1(3,7).1(9,13)]docosa-1(20), 3(22),4,6,9(21),10,12,16,18-nonaen-12-yl]-2-methylpropanamide trifluoroacetate]",–
–,–,–,–,–,"CC(C)c1cc(C(=O)N2CCC(CC(=O)Nc3ccc4cc3CCc3cncc(c3)Nc3ncc(Cl)c(n3)N4)CC2)no1 [Example A214, N-[6-Chloro-2,4,8,18,22-pentaazatetracyclo[14.3.1.1(3,7).1(9,13)]docosa-1(20),3(22),4,6,9(21),10,12,16,18-nonaen-12-yl]-2-{1-[(5-isopropylisoxazol-3-yl)carbonyl]piperidin-4-yl}acetamide bis(trifluoroacetate)]","ALK % of inhibition at a concentration of 500 nM or 1 mM [1, 5]: 15%; pIC50 [2, 6]: < 6.70; pIC50 [3, 7]: < 6.70; pIC50 [4, 8]: 7.30; pIC50 (TYK2): < 6.70"
–,6.50,< 5.00,7.85,6.24,"Cn1ccc(C(=O)N2CC[C@H](NC(=O)Nc3ccc4cc3CCc3cncc(c3)Nc3ncc(Cl)c(n3)N4)C2)n1 [Example B272, N-[6-Chloro-2,4,8,18,22-pentaazatetracyclo[14.3.1.1(3,7).1(9,13)]docosa-1(20),3(22),4,6,9(21),10,12,16,18-nonaen-12-yl]-N′-{(3S)-1-[(1-methyl-1H-pyrazol-3-yl)carbonyl]pyrrolidin-3-yl}urea bis(trifluoroacetate)]","ALK % of inhibition at a concentration of 500 nM or 1 mM [1, 10]: 23%"
–,–,–,–,–,"Clc1cnc2nc1Nc1cccc(c1)CCSCc1cccc(c1)N2 [Example D34, 6-Chloro-16-thia-2,4,8,24-tetraazatetracyclo[16.3.1.1(3,7).1(9,13)]tetracosa-1(22),3(24),4,6,9(23),10,12,18,20-nonaene trifluoroacetate]","pIC50 ([1]; Table D1, 90 μM ATP): < 6.00; pIC50 ([2]; Table D1): 7.04; pIC50 ([3]; Table D1): 6.87; pIC50 ([4]; Table D1): 6.91; pIC50 (TYK2; Table D1): 6.68"
5.82,7.57,6.69,7.03,6.42,"Clc1cnc2nc1Nc1cc(cc(CN3CCNCC3)c1)CCc1cccc(c1)N2 [Example B191, 6-Chloro-11-(piperazin-1-ylmethyl)-2,4,8,22-tetraazatetracyclo[14.3.1.1(3,7).1(9,13)]docosa-1(20),3(22),4,6,9(21),10,12,16,18-nonaene dihydrochloride]",–
–,8.57,7.59,8.77,8.37,"O=S(=O)(Nc1ccc2cc1CCc1cccc(c1)Nc1ncc(Cl)c(n1)N2)c1ccc(C(F)(F)F)cc1 [Example B162, N-[6-Chloro-2,4,8,22-tetraazatetracyclo[14.3.1.1(3,7).1(9,13)]docosa-1(20), 3(22),4,6,9(21),10,12,16,18-nonaen-12-yl]-4-(trifluoromethyl)benzenesulfonamide trifluoroacetate]","ALK % of inhibition at a concentration of 500 nM or 1 mM [1, 10]: 16%"
–,–,–,–,–,"Clc1cnc2nc1Nc1cccc(c1)CNc1cccc(c1)N2 [Example D17, 6-Chloro-2,4,8,15,22-pentaazatetracyclo[14.3.1.1(3,7).1(9,13)]docosa-1(20),3(22),4,6,9(21),10,12,16,18-nonaene bis(trifluoroacetate)]","pIC50 ([1]; Table D1, 90 μM ATP): < 6.00; pIC50 ([2]; Table D1): 7.49; pIC50 ([3]; Table D1): 6.78; pIC50 ([4]; Table D1): 7.20; pIC50 (TYK2; Table D1): 7.11"
–,7.59,7.04,7.89,7.42,"CCc1ccc(NC(=O)Nc2ccc3cc2CCc2cccc(c2)Nc2ncc(Cl)c(n2)N3)cc1 [Example B98, N-[6-Chloro-2,4,8,22-tetraazatetracyclo[14.3.1.1(3,7).1(9,13)]docosa-1(20), 3(22),4,6,9(21),10,12,16,18-nonaen-12-yl]-N′-(4-ethylphenyl)urea trifluoroacetate]","ALK % of inhibition at a concentration of 500 nM or 1 mM [1, 10]: 41%"
6.03,8.80,8.26,8.55,8.57,"O=C(Cc1ccccc1)Nc1ccc2cc1CCc1cccc(c1)Nc1ncc(Cl)c(n1)N2 [Example B32, N-[6-Chloro-2,4,8,22-tetraazatetracyclo[14.3.1.1(3,7).1(9,13)]docosa-1(20), 3(22),4,6,9(21),10,12,16,18-nonaen-12-yl]-2-phenylacetamide trifluoroacetate]",–
–,6.99,6.75,7.10,6.81,"CC(C)(C)c1ccc(C(=O)Nc2ccc3cc2CCc2cccc(c2)Nc2ncc(Cl)c(n2)N3)cc1 [Example B73, 4-tert-Butyl-N-[6-chloro-2,4,8,22-tetraazatetracyclo[14.3.1.1(3,7).1(9,13)]docosa-1(20),3(22),4,6,9(21),10,12,16,18-nonaen-12-yl]benzamide trifluoroacetate]","ALK % of inhibition at a concentration of 500 nM or 1 mM [1, 10]: 21%"
–,–,–,–,–,"O=C(CC1CCN(C(=O)c2cnccn2)CC1)Nc1ccc2cc1CCc1cccc(c1)Nc1ncc(Cl)c(n1)N2 [Example A87, N-[6-Chloro-2,4,8,22-tetraazatetracyclo[14.3.1.1(3,7).1(9,13)]docosa-1(20),3(22),4,6,9(21),10,12,16,18-nonaen-12-yl]-2-[1-(pyrazin-2-ylcarbonyl)piperidin-4-yl]acetamide bis(trifluoroacetate)]","ALK % of inhibition at a concentration of 500 nM or 1 mM [1, 5]: 31%; pIC50 [2, 6]: 8.01; pIC50 [3, 7]: 7.25; pIC50 [4, 8]: 7.85; pIC50 (TYK2): 7.92"
< 5.00,6.30,< 6.00,< 6.00,< 6.00,"O=C(Nc1cc2cc(c1)Nc1nc(ncc1Cl)Nc1cccc(c1)CC2)c1nc2ccccc2s1 [Example B204, N-[6-Chloro-2,4,8,22-tetraazatetracyclo[14.3.1.1(3,7).1(9,13)]docosa-1(20),3(22),4,6,9(21),10,12,16,18-nonaen-11-yl]-1,3-benzothiazole-2-carboxamide trifluoroacetate]",–
–,7.25,6.58,8.02,7.14,"O=C(Nc1ccc2cc1CCc1cccc(c1)Nc1ncc(Cl)c(n1)N2)Nc1cccc2c1CCCC2 [Example B109, N-[6-Chloro-2,4,8,22-tetraazatetracyclo[14.3.1.1(3,7).1(9,13)]docosa-1(20),3(22),4,6,9(21),10,12,16,18-nonaen-12-yl]-N′-(5,6,7,8-tetrahydronaphthalen-1-yl)urea trifluoroacetate]","ALK % of inhibition at a concentration of 500 nM or 1 mM [1, 10]: 0%"
